Measurements as given in US7012082B2, “Method of correcting HERG channel dysfunction” (priority 2002, dated 2006).

Experiments:
[1] = target: T1, HERG N470D mutant channels (Homo sapiens, UniProt Q12809, N470D)
[2] = target: T1, HERG N470D mutant channels; details: cultured at physiological temperature in low concentrations of drug; earlier publications; cited from earlier work
HERG N470D = target: T2, HERG N470D (Homo sapiens, UniProt Q12809, N470D); details: cultured at physiological temperature in low concentrations of drug; earlier publications; cited from earlier work
T2 construct: expressed in transfected cells

Row | Molecule | rescue of N470D current [1] | HERG current after drug washout, N470D cells (pharmacological rescue) [2] | mature HERG protein band on western blot, N470D cells (HERG N470D)
1 | Sodium-phenylbutyrate [4PBA] | did not rescue N470D current |  | 
2 | COc1cc(N)c(Cl)cc1C(=O)NC1CCN(CCCOc2ccc(F)cc2)CC1OC (stereo not drawn) [cisapride] |  | large amplitude HERG current could be recorded | appearance on western blot analysis of the mature HERG protein band
